Measured values as given in publication PMC10915168, “DJ-1 protects proteins from acylation by catalyzing the hydrolysis of highly reactive cyclic 3-phosphoglyceric anhydride” (Nature Communications, 2024).

Molecular target: T1, DJ-1 (Homo sapiens, UniProt Q99497, C106S)
T1 construct: gene PARK7; full-length, N-terminal His-tag removed by TEV protease; Ni-NTA purified recombinant; ~20 kDa
T1 sequence (Q99497 1-189 C106S): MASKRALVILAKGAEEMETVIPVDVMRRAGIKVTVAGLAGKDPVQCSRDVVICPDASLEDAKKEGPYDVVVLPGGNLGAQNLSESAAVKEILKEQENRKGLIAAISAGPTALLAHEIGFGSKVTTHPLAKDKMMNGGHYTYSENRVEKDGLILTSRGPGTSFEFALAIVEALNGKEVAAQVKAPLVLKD
Assay: end-point NAC assay of remaining cPGA; 1H-NMR
Format: biochemical
Settings: 500 µM cPGA, 2 min, 50 mM sodium phosphate pH 7.0, 25 °C; catalytic cysteine mutant

## O=C1OP(=O)(O)OC[C@H]1O [cPGA]
  end-point NAC assay of remaining cPGA; 1H-NMR: Mutation of the catalytic cysteine (C106S) in DJ-1 completely abolished this activity
